Test results published in ChEMBL document CHEMBL1136042, “Design, synthesis, and neuraminidase inhibitory activity of GS-4071 analogues that utilize a novel hydrophobic paradigm” (Bioorg Med Chem Lett, 2002).

Assay: The compound was tested for its inhibition against Neuraminidase of the influenza RNA virus

Structure (SMILES) | Ki [µM]
C=C[C@@H]1CC(C(=O)O)=C[C@@H](OC(C)C)[C@@H]1NC(C)=O | 69
C=CC[C@H]1CC(C(=O)O)=C[C@@H](OC(C)C)[C@@H]1NC(C)=O | 1.1
CC(=O)N[C@@H]1[C@@H](CCO)CC(C(=O)O)=C[C@H]1OC(C)C | 4.1
CCO[C@@H]1C=C(C(=O)O)C[C@H](N)[C@H]1NC(C)=O | 0.18
C=CC[C@@H]1CC(C(=O)O)=C[C@@H](OC(C)C)[C@@H]1NC(C)=O | 14
C=CC[C@H]1CC(C(=O)O)=C[C@@H](OC(CC)CC)[C@@H]1NC(C)=O | 1.3
C=C[C@H]1CC(C(=O)O)=C[C@@H](OC(C)C)[C@@H]1NC(C)=O | 0.045
